Reference: ChEMBL document CHEMBL1201862, “PubChem BioAssay data set” (2004)
Calls of active or inactive are those of the source.

Key:
HeLa = assay: HeLa cell cytotoxicity, dose response, cytotoxicity control for MITF activator project, CellTiter-Glo luminescence, cherry-pick samples (AID 540259); format: functional, cell-based; settings: Homo sapiens
[1] = biological target: Dual specificity tyrosine-phosphorylation-regulated kinase 1A (Rattus norvegicus, UniProt Q63470); format: biochemical, Homo sapiens
Escherichia coli = assay: microbe, parasite or virus in culture
Mu-type opioid receptor = Mu-type opioid receptor (Homo sapiens, UniProt P35372); format: functional, cell-based;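 further: U2OS cells with beta-arrestin recruitment to OPRM1 by beta-gal complementation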
[2] = biological target: 5-hydroxytryptamine receptor 2A (Mus musculus, UniProt P35363); format: functional, cell-based;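 further: CHO-K1 cells with tagged receptor and beta-arrestin; agonist potency measured as compound-induced activation of the receptor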
[3] = Luminescence Cell-Based Dose Response HTS to Identify Activators of Luciferase Translation or Activity in H4 […] Cells. [Related pubchem assays: 1829 (Project Summary), 1814 (Primary HTS)]; format: functional
H4 = assay: Luminescence Cell-Based Dose Response HTS to Identify Activators of 5'UTR Stem-Loop Driven Prion Protein mRNA Translation in H4 Neuroglioblastoma Cells. [Related pubchem assays: 1829 (Project Summary), 1814 (Primary HTS)]; format: functional; settings: Homo sapiens
[4] = NIH-3T3 fibroblast cytotoxicity, dose response, cytotoxicity control, cell-based, fluorescence, Alamar Blue, secondary assay (AID 2327); format: functional;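 further: NIH-3T3 mouse fibroblasts cultured with fluconazole at 8 µg/mL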
[5] = biological target: T1, Heat shock factor protein 1 (Mus musculus, UniProt P38532); assay: inhibition of MG132-induced HSE-luciferase signal, confirmation, cell-based, NIH3T3, luminescence, dose retest (AID 2382); format: functional;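 further: NIH3T3 fibroblasts with HSF1-driven luciferase reporter stressed by proteasome inhibitor MG132; luminescence from HSF1-driven luciferase expression after 8 hours of MG132 stress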
T1 sequence (P38532 whole entry): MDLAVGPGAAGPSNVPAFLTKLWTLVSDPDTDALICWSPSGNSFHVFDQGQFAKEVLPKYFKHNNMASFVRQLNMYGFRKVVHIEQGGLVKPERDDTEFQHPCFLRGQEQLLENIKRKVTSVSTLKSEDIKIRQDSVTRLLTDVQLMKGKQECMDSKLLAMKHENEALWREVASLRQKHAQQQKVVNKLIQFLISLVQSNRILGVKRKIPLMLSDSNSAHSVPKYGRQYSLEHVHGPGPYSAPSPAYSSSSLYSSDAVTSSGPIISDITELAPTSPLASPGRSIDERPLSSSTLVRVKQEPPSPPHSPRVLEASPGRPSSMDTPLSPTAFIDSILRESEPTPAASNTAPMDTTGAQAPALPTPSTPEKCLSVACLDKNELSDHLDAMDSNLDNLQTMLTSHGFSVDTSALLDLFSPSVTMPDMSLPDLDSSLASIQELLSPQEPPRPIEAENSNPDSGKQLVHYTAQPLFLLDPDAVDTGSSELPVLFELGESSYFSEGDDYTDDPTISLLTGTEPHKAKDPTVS

[6] = C. albicans growth with fluconazole, confirmation, fluorescence, retest (AID 2467); format: functional, cell-based
[7] = inhibitors of intracellular T. cruzi replication, confirmation, NIH3T3 host cells, beta-gal luminescence (AID 2044); format: functional, cell-based;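 further: intracellular parasites grown in NIH/3T3 mouse fibroblasts as host cells; luminescent beta-galactosidase reporter signal from transgenic T. cruzi replicating inside host cells; inhibitors lower the luminescence signal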
[8] = cytotoxicity toward NIH3T3 fibroblasts, dose response, counter-screen, cell-based, ATP luminescence, mouse fibroblasts (AID 2010); format: functional;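 further: cells exposed to compound for about 90 hours before reading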
[9] = biological target: T2, Oxysterols receptor LXR-beta (Homo sapiens, UniProt P55055); format: functional, cell-based;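 further: Cell-based luminescence dose-response assay of agonist activity at LXR, run as a confirmatory counterscreen to a daf-12 agonist screen; HEK293 cells with Gal4-LXR fusion and GAL4-driven luciferase reporter; agonist potency from rising luciferase signal of a Gal4-LXR reporter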
T2 sequence (P55055 whole entry): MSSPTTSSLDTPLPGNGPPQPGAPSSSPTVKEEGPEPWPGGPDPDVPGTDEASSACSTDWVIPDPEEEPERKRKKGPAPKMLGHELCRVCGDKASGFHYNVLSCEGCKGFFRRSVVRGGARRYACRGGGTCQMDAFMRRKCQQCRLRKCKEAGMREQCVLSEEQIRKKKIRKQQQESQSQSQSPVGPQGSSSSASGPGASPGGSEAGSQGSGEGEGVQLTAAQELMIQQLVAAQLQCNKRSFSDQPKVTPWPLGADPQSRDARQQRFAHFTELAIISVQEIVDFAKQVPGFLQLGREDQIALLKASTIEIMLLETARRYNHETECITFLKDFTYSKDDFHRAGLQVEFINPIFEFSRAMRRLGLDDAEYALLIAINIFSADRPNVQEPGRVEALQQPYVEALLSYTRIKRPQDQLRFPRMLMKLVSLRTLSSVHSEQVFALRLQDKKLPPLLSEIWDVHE

[10] = biological target: T3, Microphthalmia-associated transcription factor (Homo sapiens, UniProt O75030); assay: TRPM1 promoter luciferase signal decrease, dose response, MITF inhibitor project, cell-based, SK-MEL-5, cherry-picked, set 3 (AID 493073); format: functional
T3 sequence (O75030 whole entry): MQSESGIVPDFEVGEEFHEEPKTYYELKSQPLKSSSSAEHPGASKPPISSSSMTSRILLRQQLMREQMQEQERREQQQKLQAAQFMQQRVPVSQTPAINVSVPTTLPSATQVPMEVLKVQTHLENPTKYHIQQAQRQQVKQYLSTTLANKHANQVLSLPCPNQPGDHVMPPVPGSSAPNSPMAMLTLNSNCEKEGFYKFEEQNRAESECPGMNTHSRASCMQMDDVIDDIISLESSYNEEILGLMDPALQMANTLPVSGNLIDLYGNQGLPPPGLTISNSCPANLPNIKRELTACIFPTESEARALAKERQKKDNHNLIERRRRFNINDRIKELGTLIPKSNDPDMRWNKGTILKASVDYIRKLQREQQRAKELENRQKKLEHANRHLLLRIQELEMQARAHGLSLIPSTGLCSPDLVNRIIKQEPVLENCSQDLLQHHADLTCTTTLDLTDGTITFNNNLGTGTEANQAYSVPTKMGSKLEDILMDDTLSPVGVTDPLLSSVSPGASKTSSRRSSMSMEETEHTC

[11] = Shn3 3'UTR reporter inhibitors, dose response, cell-based, Clone20 osteoblasts, firefly luciferase, cherry-picked (AID 624132); format: functional;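 further: firefly luciferase luminescence from reporter carrying the Shn3 3'UTR in osteoblasts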
[12] = HepG2 cell cytotoxicity, dose response, cytotoxicity control for Shn3 inhibitor project, CellTiter-Glo, cherry-picked (AID 624134); format: functional, cell-based
[13] = control 3'UTR Renilla luciferase suppression, dose response, counter-screen for Shn3 inhibitor project, cell-based, Clone20-Shn3RL, cherry-picked (AID 624133); format: functional

Chain of Mu-type opioid receptor (P35372 whole entry): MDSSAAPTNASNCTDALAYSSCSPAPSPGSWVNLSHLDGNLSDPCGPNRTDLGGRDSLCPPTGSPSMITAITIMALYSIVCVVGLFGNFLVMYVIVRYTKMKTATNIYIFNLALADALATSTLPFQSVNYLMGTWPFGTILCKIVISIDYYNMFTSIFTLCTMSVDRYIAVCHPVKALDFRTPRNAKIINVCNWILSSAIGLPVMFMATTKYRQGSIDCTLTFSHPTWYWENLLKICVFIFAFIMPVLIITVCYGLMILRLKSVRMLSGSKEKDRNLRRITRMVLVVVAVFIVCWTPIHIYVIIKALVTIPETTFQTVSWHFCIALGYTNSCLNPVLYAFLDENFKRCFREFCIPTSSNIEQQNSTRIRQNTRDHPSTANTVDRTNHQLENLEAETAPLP
Chain of 5-hydroxytryptamine receptor 2A (P35363 whole entry): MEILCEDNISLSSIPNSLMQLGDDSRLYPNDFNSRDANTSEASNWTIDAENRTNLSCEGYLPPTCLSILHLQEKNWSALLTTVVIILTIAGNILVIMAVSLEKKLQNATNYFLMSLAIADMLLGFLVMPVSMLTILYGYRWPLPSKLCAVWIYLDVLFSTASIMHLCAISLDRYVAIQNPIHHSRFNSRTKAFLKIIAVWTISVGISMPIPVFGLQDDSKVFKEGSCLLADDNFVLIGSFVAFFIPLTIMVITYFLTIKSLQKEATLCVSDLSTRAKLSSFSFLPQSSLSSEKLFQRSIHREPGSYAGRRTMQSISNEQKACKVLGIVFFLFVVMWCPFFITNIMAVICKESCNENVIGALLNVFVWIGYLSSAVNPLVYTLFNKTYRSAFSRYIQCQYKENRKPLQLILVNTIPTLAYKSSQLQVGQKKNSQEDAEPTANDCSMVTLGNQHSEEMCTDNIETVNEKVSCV

With CCSc1nnc(NC(=O)NC2CCCCC2)s1 the AC50 (HeLa) was 136 µM (active).
With CCc1ccc(NC(=O)c2nnc(O)c3ccccc23)cc1 the AC50 (HeLa) was > 350 µM (inactive).
With Nc1c(C(=O)O)ccc2c1C(=O)c1ccccc1C2=O the AC50 [1] was 1.28 µM (active).
With CCc1ccc(N2CC(C(=O)N3CCN(c4ccccn4)CC3)CC2=O)cc1 (configuration not stated) the AC50 (Escherichia coli) was 29.9 µM (active).
In the case of Oc1ccc(C2=CCNCC2)cc1O, the EC50 (Mu-type opioid receptor) is reported as 92.4 µM (inactive) and the EC50 [2] is reported as 0.0242 µM (active).
In the case of CC(C)c1ccc(/C=N/NC(=O)C2CCCC2)cc1, the EC50 [3] is reported as 8.02 µM (active), the EC50 (H4) is reported as 2.72 µM (active) and the AC50 (HeLa) is reported as 132 µM (active).
With C(=N\NC1=Nc2cccc3cccc1c23)/c1ccccn1 the EC50 [4] was 2.55 µM (inconclusive), the EC50 [5] was 3.2 µM (active) and the EC50 [6] was 1.05 µM (active). The EC50 [7] was 0.619 µM (active), the EC50 [8] was > 60 µM (not active) and the AC50 [1] was 9.7 µM (active). The EC50 [9] was > 67.5 µM (inactive) and the EC50 (cells) was > 67.5 µM (inactive).
For CC1CCC/C=C/C(=O)c2c(O)cc(O)cc2CC(=O)O1 (configuration not stated), the AC50 [10] was 5.79 µM (active), the AC50 [11] was 4.12 µM (active) and the AC50 [12] was > 70 µM (inactive). For the same compound, the AC50 [13] was 13.6 µM (active).
For CC1CCc2cc(F)cc3c(=O)c(C(=O)O)cn1c23 (configuration not stated) [FLUMEQUINE], the AC50 (Escherichia coli) was 1.99 µM (active).
